Laboratory results: patent US5462926A (Biomeasure, Inc., priority 1993, dated 1995)
Read-outs that look alike come from different tables or passages of the source. Where a SMILES comes first, the peptide text is derived from it. Bridges are numbered along the chain shown (N, C = ends). [ ]: non-standard residue; d: D form. 2Nal = N[C@@H](Cc1ccc2ccccc2c1)C(=O)O; d2Nal = N[C@H](Cc1ccc2ccccc2c1)C(=O)O

Key:
GRP receptor = GRP receptor (Rattus norvegicus, UniProt P52500); assay: Amylase release from rat pancreatic acini (alone or Bn-stimulated); assay type: cell-based; set-up: from tissue; host or cells: dispersed pancreatic acini; settings: for Amylase Release, analog Alone (10 μM): analog 10 μM alone, control 4 ± 1; for Amylase Release, analog Plus Bn (0.3 nM): analog 10 μM plus Bn 0.3 nM, Bn without analog 15 ± 1; for IC50: read-out: IC50 Amylase Release, GRP Receptor, Rat Pancreatic Acini
GRP receptor, sequence (P52500 whole entry): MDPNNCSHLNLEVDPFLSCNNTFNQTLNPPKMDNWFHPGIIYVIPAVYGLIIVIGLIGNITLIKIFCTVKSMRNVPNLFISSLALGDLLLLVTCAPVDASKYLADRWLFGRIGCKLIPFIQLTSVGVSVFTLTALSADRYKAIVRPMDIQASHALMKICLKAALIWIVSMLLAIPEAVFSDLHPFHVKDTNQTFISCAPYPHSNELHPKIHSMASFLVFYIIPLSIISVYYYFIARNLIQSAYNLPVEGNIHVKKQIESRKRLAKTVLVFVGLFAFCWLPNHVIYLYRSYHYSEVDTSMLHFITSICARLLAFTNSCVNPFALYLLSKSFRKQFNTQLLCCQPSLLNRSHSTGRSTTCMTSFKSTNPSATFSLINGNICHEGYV
In short: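 Rat pancreatic acini incubated 30 min at 37° C without additives or with somatostatin octapeptide analog, Bn, NMB or combinations. Amylase release expressed as percent of total cellular amylase released during incubation; for inhibition, somatostatin analog (10 μM) tested on 0.3 nM Bn-stimulated release.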

NMB receptor = target: T1, NMB receptor (Rattus norvegicus, UniProt P24053); assay: [3H]inositol phosphates in NMB-R transfected cells (alone or NMB-stimulated); assay type: cell-based; set-up: a full length NMB-preferring bombesin receptor clone generated from rat esophagus; expressed in transfected cells; settings: NMB-R transfected cells; for IC50 / effect at 10 μM on NMB-stimulated increase in [3H]IP: 3 nM NMB; for [3H]IP, analog Alone (10 μM): analog 10 μM alone, control 13 ± 3; for [3H]IP, analog Plus NMB (3 nM): analog 10 μM plus NMB 3 nM, NMB without analog 186 ± 58
T1 sequence (P24053 1-390): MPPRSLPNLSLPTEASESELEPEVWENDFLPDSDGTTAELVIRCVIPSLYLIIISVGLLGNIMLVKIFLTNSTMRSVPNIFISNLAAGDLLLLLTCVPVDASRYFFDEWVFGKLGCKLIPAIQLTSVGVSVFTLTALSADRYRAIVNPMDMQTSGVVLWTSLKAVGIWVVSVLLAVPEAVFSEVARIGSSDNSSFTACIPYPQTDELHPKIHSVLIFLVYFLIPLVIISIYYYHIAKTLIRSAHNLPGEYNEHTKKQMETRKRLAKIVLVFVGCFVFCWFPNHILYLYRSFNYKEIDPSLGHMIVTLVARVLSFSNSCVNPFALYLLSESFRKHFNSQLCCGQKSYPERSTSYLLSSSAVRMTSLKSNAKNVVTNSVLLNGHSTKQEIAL
Procedure: As described previously [Wada, E., et al. Neuron 6:421 (1991)], BALB 3T3 cells expressing a stably transfected rat NMB receptor (NMB-R transfected cells) were obtained using calcium phosphate precipitation of a full length NMB-preferring bombesin receptor clone generated from rat esophagus and subcloned into a modified version of the pCD2 plasmid. Cells were passaged every 3-4 days at confluence, using 0.1% trypsin in 1 mM EDTA. Rat glioblastoma C-6 tumor cells were maintained similarly and were passaged weekly at confluence. Both cell lines were cultured at 37° C. in a 5% CO2 atmosphere. Rat AR 42J pancreatic acinar cells were cultured in Dulbecco's modified Eagle's medium (DMEM) without antibiotics and supplemented with 10% (vol/vol) fetal calf serum. The incubation atmosphere consisted of 10% CO2 -90% humidified air at 37° C.
Measurement of phosphoinositides
Total phosphoinositides in C-6 cells and in NMB-R transfected cells were determined as described previously, with minor modifications [Benya, R. V. et al. Mol. Pharmacol. 42:1058 (1992); and Wang, L-H. et al. Biochem. Jo 286:641 (1992)]. Cells were grown to confluence in 24-well plates and then loaded with 100 μCi/ml myo-[2-^3 H]inositol in Dulbecco's modified essential medium with 2% fetal bovine serum at 37° C. for 48 hrs. Cells were washed and incubated in phosphoinositide buffer (standard buffer additionally containing 10 mM LiCl, 20 mM HEPES, 2 mM CaCl2, 2% BSA, and 1.2 mM MgSO4) for 15 min and then for 60 min at 37° C. with agonists at various concentrations or with 3 nM NMB (a half-maximal effective concentration) and possible antagonists at different concentrations. Reactions were halted using ice-cold 1% HCl in methanol, and the inositol phosphates (IP) were isolated as described previously [Bologna, M. et al. Cancer 63:1714 (1989); and Endo, T. et al. J. Endocrinolo 131:313 (1991)]. Briefly, after loading of the anion exchange column, free [^3 H]glycerophosphorylinositol was removed by washing with 5 mM disodium tetraborate in 60 mM sodium formate. Total [^3 H]inositol phosphates were then eluted using 100 mM formic acid in 1.0M ammonium formate as described previously [Benya, R. V. et al. Mol. Pharmacol. 42:1058 (1992); and Wang, L-H. et al. Biochem. J. 286:641 (1992 )].

[1] = target: T2, GRP receptors on rat pancreatic acini (Rattus norvegicus, UniProt P52500); assay: Binding of 125I-[Tyr4]bombesin to pancreatic acini; settings: read-out: Ki 125I-[Tyr4]Bn Binding, GRP Receptor, Rat Pancreatic Acini; Ki by Cheng method
T2 construct: from tissue; host or cells: dispersed pancreatic acini
T2 sequence (P52500 whole entry): as the sequence (P52500 whole entry) above
Text: Nonsaturable binding was<10% of total binding in all experiments.

[2] = target: T3, NMB receptors on C-6 cells (Rattus norvegicus, UniProt P24053); assay: Binding of 125I-[D-Tyr0]NMB to C-6 glioblastoma cells; settings: Ki by Cheng method, read-out: Ki 125I-NMB Binding, NMB Receptor, C-6 Cells
T3 construct: endogenous in cells; host or cells: rat glioblastoma C-6 cells
T3 sequence (P24053 1-390): T1 sequence (P24053 1-390)
Procedure: Binding of ^125 I-[D-Tyr^0 ]NMB to C-6 glioblastoma and NMB-R transfected cells
Binding studies using rat glioblastoma C-6 or NMB-R transfected cells were performed as described previously [Benya, R. V. et al. Mol. Pharmacol. 42:1058 (1992); and Wang, L-H. et al. Biochem. J. 286:641 (1992)] by suspending disaggregated cells in binding buffer, which was composed of standing buffer ([…], 7.7 mM KCl, 1.0 mM EGTA, 0.02% soybean trypsin inhibitor) additionally containing 50 mM HEPES, 1 mM MgCl2, 1.5 mM CaCl2, 2.2 mM KH2 PO4, 0,015% glutamine, and 0.2% BSA (w/v) (pH 7.4). Incubations contained 75 pM ^125 I-[D-Tyr^0 ]NMB and 15×10^6 C-6 cells/ml or 2×10^6 NMB-R transfected cells/ml, for 60 min at 22° C. Nonsaturable binding of ^125 I-[D-Tyr^0 ]NMB was the amount of radioactivity associated with C-6 cells or NMB-R transfected cells when the incubation mixture contained […] NMB. Nonsaturable binding was<15% of total binding in all experiments; all values are reported herein as saturable binding (i.e., total minus nonsaturable binding).

somatostatin receptors = target: T4, somatostatin receptors (Rattus norvegicus, UniProt P30680); assay: Somatostatin membrane receptor assay, 125I-[Tyr11]SS-14, AR 42J cell membranes; assay type: binding; settings: Cheng method; table prints no unit (b360 gives nM for a Table 4 value); read-out: affinity, 125I-[Tyr11]SS-14, AR 42J Cell Membranes (somatostatin receptors)
T4 construct: endogenous in cells; host or cells: rat AR 42J pancreatic acinar tumor cell membranes
T4 sequence (P30680 whole entry): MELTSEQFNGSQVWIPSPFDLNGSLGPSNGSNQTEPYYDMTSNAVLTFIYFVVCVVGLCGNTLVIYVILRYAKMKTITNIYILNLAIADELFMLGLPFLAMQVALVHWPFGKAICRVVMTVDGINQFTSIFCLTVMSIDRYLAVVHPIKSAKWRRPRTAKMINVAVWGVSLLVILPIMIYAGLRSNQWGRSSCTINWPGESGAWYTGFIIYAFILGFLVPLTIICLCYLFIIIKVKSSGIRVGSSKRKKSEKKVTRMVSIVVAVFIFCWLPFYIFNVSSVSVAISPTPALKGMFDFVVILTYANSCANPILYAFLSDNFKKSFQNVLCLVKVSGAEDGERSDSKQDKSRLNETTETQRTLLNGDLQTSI

mu opioid receptors = target: T5, mu opioid receptors (Rattus norvegicus, UniProt P33535); assay: Mu opioid membrane assay, [3H]DAGO, rat forebrain membranes; assay type: binding; settings: Cheng method; unit inferred; read-out: affinity, [3H]DAGO, Rat Forebrain membranes (mu opioid receptors)
T5 construct: rat forebrain (TRH, mu and delta opioid membrane assays); from tissue; host or cells: rat forebrain membranes
T5 sequence (P33535 whole entry): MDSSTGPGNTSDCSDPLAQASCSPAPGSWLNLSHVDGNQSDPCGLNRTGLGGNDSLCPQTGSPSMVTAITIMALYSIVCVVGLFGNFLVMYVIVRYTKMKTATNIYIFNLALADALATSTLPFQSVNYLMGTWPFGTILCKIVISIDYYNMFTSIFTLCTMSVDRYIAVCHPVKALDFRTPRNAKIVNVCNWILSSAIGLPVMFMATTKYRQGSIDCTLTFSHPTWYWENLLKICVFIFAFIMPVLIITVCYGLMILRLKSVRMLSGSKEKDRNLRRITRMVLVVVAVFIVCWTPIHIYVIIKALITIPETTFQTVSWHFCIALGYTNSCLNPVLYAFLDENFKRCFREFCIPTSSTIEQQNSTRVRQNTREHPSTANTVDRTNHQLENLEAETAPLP

[3] = read-out: IC50 NMB-stimulated [3H]IP, NMB Receptor, Transfected Cells

SMILES	Amylase Release, analog Alone (10 μM) (GRP receptor)	Amylase Release, analog Plus Bn (0.3 nM) (GRP receptor)	IC50 (GRP receptor)	IC50 (NMB receptor; [3])	effect at 10 μM on NMB-stimulated increase in [3H]IP (NMB receptor)	[3H]IP, analog Alone (10 μM) (NMB receptor)	[3H]IP, analog Plus NMB (3 nM) (NMB receptor)	Ki [1]	Ki [2]	Ki (somatostatin receptors)	Ki (mu opioid receptors)	IC50 (NMB receptor; read-out: IC50 NMB-stimulated [3H]IP, Transfected Cells (values in μM))
CC(C)[C@@H]1NC(=O)[C@H](CCCCN)NC(=O)[C@@H](Cc2c[nH]c3ccccc23)NC(=O)[C@H](Cc2ccc(O)cc2)NC(=O)[C@H](NC(=O)[C@H](N)Cc2ccc3ccccc3c2)CSSC[C@@H](C(=O)N[C@@H](Cc2ccc3ccccc3c2)C(N)=O)NC1=O [Analog #10, H2 -D-Nal-D-Cys-Tyr-D-Trp-Lys-Val-Cys-Nal-NH2] (H-[d2Nal][dC]Y[dW]KVC[2Nal]-NH2; disulfide 2-7)	3 ± 1 % total	16 ± 1 % total	> 10 µM	3.99 ± 0.781 µM	completely inhibited	10 ± 3 dym × 10^3	4 ± 2 dym × 10^3	> 10 µM	1.15 ± 0.518 µM	91 ± 23 nM	1.02 µM	–
CC(C)[C@@H]1NC(=O)[C@H](CCCCN)NC(=O)[C@@H](Cc2c[nH]c3ccccc23)NC(=O)[C@H](Cc2ccc(O)cc2)NC(=O)[C@@H](NC(=O)[C@H](N)Cc2ccc3ccccc3c2)CSSC[C@H](C(=O)N[C@@H](Cc2ccc3ccccc3c2)C(N)=O)NC1=O [Analog #11, H2 -D-Nal-Cys-Tyr-D-Trp-Lys-Val-D-Cys-Nal-NH2] (H-[d2Nal]CY[dW]KV[dC][2Nal]-NH2; disulfide 2-7)	2 ± 1 % total	14 ± 1 % total	> 10 µM	1.43 ± 0.119 µM	completely inhibited	10 ± 1 dym × 10^3	7 ± 4 dym × 10^3	> 10 µM	1.74 ± 0.345 µM	48 ± 3 nM	> 10 µM	1.2 to 1.8 µM
CC(C)[C@@H]1NC(=O)[C@H](CCCCN)NC(=O)[C@@H](Cc2c[nH]c3ccccc23)NC(=O)[C@H](Cc2ccc(O)cc2)NC(=O)[C@@H](NC(=O)[C@H](N)Cc2c[nH]c3ccccc23)CSSC[C@@H](C(=O)N[C@@H](Cc2ccc3ccccc3c2)C(N)=O)NC1=O [Analog #12, H2 -D-Trp-Cys-Tyr-D-Trp-Lys-Val-Cys-Nal-NH2] (H-[dW]CY[dW]KVC[2Nal]-NH2; disulfide 2-7)	3 ± 1 % total	13 ± 1 % total	> 10 µM	4.69 ± 0.927 µM	–	9 ± 2 dym × 10^3	43 ± 2 dym × 10^3	> 10 µM	1.78 ± 0.109 µM	3.1 ± 1.6 nM	> 10 µM	–
